Key:
[1] = target: T1, Vascular endothelial growth factor receptor 2 (Homo sapiens, UniProt P35968); assay: Inhibition of poly(Glu4-Tyr)peptide phosphorylation by recombinant VEGFR2 at 10 uM ATP and in presence of 100 uM glutathione
[2] = target: T1, Vascular endothelial growth factor receptor 2; assay: Inhibition of poly(Glu4-Tyr)peptide phosphorylation by recombinant VEGFR2 at 10 uM ATP and in presence of 5% mouse plasma
[3] = target: T1, Vascular endothelial growth factor receptor 2; assay: Inhibition of poly(Glu4-Tyr)peptide phosphorylation by recombinant VEGFR2 at 10 uM ATP

Measured: IC50

T1 sequence (P35968 whole entry): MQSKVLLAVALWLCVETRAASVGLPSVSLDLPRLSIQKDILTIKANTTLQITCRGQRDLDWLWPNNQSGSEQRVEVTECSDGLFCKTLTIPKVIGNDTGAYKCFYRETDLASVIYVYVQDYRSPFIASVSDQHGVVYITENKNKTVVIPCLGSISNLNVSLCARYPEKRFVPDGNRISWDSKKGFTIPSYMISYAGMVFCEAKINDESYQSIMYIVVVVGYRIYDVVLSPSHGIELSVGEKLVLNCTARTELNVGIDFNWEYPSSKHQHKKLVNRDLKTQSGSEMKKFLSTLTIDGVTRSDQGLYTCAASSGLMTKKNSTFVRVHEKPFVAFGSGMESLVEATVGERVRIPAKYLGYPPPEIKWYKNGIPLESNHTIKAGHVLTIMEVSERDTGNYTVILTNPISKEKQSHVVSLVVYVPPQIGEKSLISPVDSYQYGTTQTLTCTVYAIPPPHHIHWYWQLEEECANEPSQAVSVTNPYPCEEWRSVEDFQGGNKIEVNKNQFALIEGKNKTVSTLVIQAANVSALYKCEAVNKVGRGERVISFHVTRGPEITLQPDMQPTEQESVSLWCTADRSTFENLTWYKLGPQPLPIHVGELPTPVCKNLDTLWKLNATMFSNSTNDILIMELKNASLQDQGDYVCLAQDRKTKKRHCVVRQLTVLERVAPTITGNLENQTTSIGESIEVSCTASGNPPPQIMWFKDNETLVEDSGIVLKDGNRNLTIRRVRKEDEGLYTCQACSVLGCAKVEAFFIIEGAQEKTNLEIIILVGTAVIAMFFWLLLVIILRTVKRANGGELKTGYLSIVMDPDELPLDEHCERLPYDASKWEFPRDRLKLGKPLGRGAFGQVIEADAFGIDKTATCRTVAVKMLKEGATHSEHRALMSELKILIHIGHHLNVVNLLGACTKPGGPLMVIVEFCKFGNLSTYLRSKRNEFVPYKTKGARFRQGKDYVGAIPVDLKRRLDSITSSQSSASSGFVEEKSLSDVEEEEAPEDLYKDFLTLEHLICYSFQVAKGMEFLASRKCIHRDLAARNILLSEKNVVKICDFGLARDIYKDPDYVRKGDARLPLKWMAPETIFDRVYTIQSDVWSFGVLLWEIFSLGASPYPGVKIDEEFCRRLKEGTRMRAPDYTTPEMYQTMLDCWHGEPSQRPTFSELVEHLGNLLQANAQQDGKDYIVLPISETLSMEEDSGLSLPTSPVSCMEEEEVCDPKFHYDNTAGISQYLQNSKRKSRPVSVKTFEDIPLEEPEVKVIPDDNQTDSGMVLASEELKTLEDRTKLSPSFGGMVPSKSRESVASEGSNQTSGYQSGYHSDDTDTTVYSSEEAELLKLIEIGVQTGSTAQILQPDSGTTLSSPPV

COCCOc1cc2ncnc(N=C3C(=O)C(OC)=CC(=O)C3Sc3ccccn3)c2cc1OC (stereo not drawn) [5-methoxy-3-{[6-methoxy-7-(2-methoxyethoxy)quinazolin-4-yl]amino}-2-(pyridin-2-ylthio)benzo-1,4-quinone]
> 1000 nM: [1] | [2] | [3]
